The results in this text go back to patent publication US8404679B2, “Pyrrolidine derivatives as NK2 receptor antagonists” (Hoffmann-La Roche Inc., priority 2008, dated 2013).

For this experiment, the target named is T1, human NK2 receptor (Homo sapiens, UniProt P21452).
T1 construct: purchased Perkin Elmer biosignal Inc. 6110510
T1 sequence (P21452 1-398): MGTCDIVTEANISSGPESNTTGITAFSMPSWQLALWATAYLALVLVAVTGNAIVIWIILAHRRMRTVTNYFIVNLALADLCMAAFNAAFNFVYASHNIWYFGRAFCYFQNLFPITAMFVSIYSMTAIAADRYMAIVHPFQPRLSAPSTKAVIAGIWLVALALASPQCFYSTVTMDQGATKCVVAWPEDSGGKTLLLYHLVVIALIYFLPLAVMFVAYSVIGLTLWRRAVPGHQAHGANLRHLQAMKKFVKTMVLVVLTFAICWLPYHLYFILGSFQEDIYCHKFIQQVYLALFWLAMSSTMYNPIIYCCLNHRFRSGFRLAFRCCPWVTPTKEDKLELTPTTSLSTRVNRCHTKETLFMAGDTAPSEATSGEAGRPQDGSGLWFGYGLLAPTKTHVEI
The experiment in a line: [3H]SR48968 competition binding assay. Particulars: [3H]SR48968 displacement, membranes of CHO cells stably expressing recombinant human NK2 receptor; Ki from IC50 by Cheng-Prussoff. The method, boiled down:
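Membranes from CHO cells stably expressing recombinant human NK2 were incubated 75 min at RT with [3H]SR48968 at its KD and 10 compound concentrations (0.0003–10 μM) in Tris-HCl pH 7.4, MnCl2, chymostatin, BSA. Filter-bound radioactivity was counted; Hill-fitted IC50 converted to Ki via Cheng-Prusoff.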
`Cc1ccnc(C(=O)N(C)[C@@H]2CN(C(=O)c3ccc(C#N)cc3)C[C@H]2c2ccc(Cl)c(Cl)c2)c1` (racemic) [Example 63, rac-4-Methyl-pyridine-2-carboxylic acid [(3S,4R)-1-(4-cyano-benzoyl)-4-(3,4-dichloro-phenyl)-pyrrolidin-3-yl]-methyl-amide]: the Ki was determined as 2.64 nM.
Take `CCOCc1ccc(C(=O)N(C)[C@@H]2CN(C(=O)c3ccc(C#N)cc3)C[C@H]2c2ccc(Cl)c(Cl)c2)nc1` (racemic) [Example 65, rac-5-Ethoxymethyl-pyridine-2-carboxylic acid [(3S,4R)-1-(4-cyano-benzoyl)-4-(3,4-dichloro-phenyl)-pyrrolidin-3-yl]-methyl-amide]: the Ki was 30.2 nM.
In the case of `Cc1cc(Cl)cc(C(=O)N(C)[C@@H]2CN(C(=O)c3ccc(C#N)cc3)C[C@H]2c2ccc(Cl)c(Cl)c2)n1` (racemic) [Example 66, rac-4-Chloro-6-methyl-pyridine-2-carboxylic acid [(3S,4R)-1-(4-cyano-benzoyl)-4-(3,4-dichloro-phenyl)-pyrrolidin-3-yl]-methyl-amide] it was 49.8 nM; in that of `COc1cc(C(=O)N(C)[C@@H]2CN(C(=O)c3ccc(C#N)cc3)C[C@H]2c2ccc(Cl)c(Cl)c2)nc2ccccc12` (racemic) [Example 67, rac-4-Methoxy-quinoline-2-carboxylic acid [(3S,4R)-1-(4-cyano-benzoyl)-4-(3,4-dichloro-phenyl)-pyrrolidin-3-yl]-methyl-amide], 52.9 nM.
Consider `CCc1cc(Cl)cc(C(=O)N(C)[C@@H]2CN(C(=O)c3ccc(C#N)cc3)C[C@H]2c2ccc(Cl)c(Cl)c2)n1` (racemic) [Example 68, rac-4-Chloro-6-ethyl-pyridine-2-carboxylic acid [(3S,4R)-1-(4-cyano-benzoyl)-4-(3,4-dichloro-phenyl)-pyrrolidin-3-yl]-methyl-amide], for which the Ki worked out at 74.3 nM.
For the compound `CN(C(=O)c1ccc(Cl)cn1)[C@@H]1CN(C(=O)c2ccc(C#N)cc2)C[C@H]1c1ccc(Cl)c(Cl)c1` (racemic) [Example 69, rac-5-Chloro-pyridine-2-carboxylic acid [(3S,4R)-1-(4-cyano-benzoyl)-4-(3,4-dichloro-phenyl)-pyrrolidin-3-yl]-methyl-amide], the Ki amounted to 23.3 nM.
In the case of `CN(C(=O)c1ccc(C#N)cn1)[C@@H]1CN(C(=O)c2ccc(C#N)cc2)C[C@H]1c1ccc(Cl)c(Cl)c1` (racemic) [Example 70, rac-5-Cyano-pyridine-2-carboxylic acid [(3S,4R)-1-(4-cyano-benzoyl)-4-(3,4-dichloro-phenyl)-pyrrolidin-3-yl]-methyl-amide] it was 39.7 nM; in that of `COc1nc(C(=O)N(C)[C@@H]2CN(C(=O)c3ccc(C#N)cc3)C[C@H]2c2ccc(Cl)c(Cl)c2)ccc1C#N` (racemic) [Example 71, rac-5-Cyano-6-methoxy-pyridine-2-carboxylic acid [(3S,4R)-1-(4-cyano-benzoyl)-4-(3,4-dichloro-phenyl)-pyrrolidin-3-yl]-methyl-amide], 34.4 nM; in that of `CN(C(=O)c1ccc(Cl)c(C(F)(F)F)c1)[C@@H]1CN(C(=O)c2ccc(C#N)cc2)C[C@H]1c1ccc(Cl)c(Cl)c1` (racemic) [Example 72, rac-4-Chloro-N-[(3S,4R)-1-(4-cyano-benzoyl)-4-(3,4-dichloro-phenyl)-pyrrolidin-3-yl]-N-methyl-3-trifluoromethyl-benzamide], 0.58 nM.
In the case of `COc1ccc(C(=O)N(C)[C@@H]2CN(C(=O)c3ccc(C#N)cc3)C[C@H]2c2ccc(Cl)c(Cl)c2)cc1F` (racemic) [Example 73, rac-N-[(3S,4R)-1-(4-Cyano-benzoyl)-4-(3,4-dichloro-phenyl)-pyrrolidin-3-yl]-3-fluoro-4-methoxy-N-methyl-benzamide] it was 12.4 nM; in that of `COc1ccc(C(=O)N(C)[C@@H]2CN(C(=O)c3ccc(C#N)cc3)C[C@H]2c2ccc(Cl)c(Cl)c2)cc1C(C)(C)C` (racemic) [Example 74, rac-3-tert-Butyl-N-[(3S,4R)-1-(4-cyano-benzoyl)-4-(3,4-dichloro-phenyl)-pyrrolidin-3-yl]-4-methoxy-N-methyl-benzamide], 1.3 nM; in that of `CN(C(=O)c1ccc(OCC2CC2)cc1)[C@@H]1CN(C(=O)c2ccc(C#N)cc2)C[C@H]1c1ccc(Cl)c(Cl)c1` (racemic) [Example 75, rac-N-[(3S,4R)-1-(4-Cyano-benzoyl)-4-(3,4-dichloro-phenyl)-pyrrolidin-3-yl]-4-cyclopropylmethoxy-N-methyl-benzamide], 23 nM.
In the case of `COc1ncc(C(=O)N(C)[C@@H]2CN(C(=O)c3ccc(C#N)cc3)C[C@H]2c2ccc(Cl)c(Cl)c2)cn1` (racemic) [Example 76, rac-2-Methoxy-pyrimidine-5-carboxylic acid [(3S,4R)-1-(4-cyano-benzoyl)-4-(3,4-dichloro-phenyl)-pyrrolidin-3-yl]-methyl-amide] it was 96 nM; in that of `Cc1ccc(C(=O)N(C)[C@@H]2CN(C(=O)c3ccc(C#N)cc3)C[C@H]2c2ccc(Cl)c(Cl)c2)cn1` (racemic) [Example 77, rac-N-[(3S,4R)-1-(4-Cyano-benzoyl)-4-(3,4-dichloro-phenyl)-pyrrolidin-3-yl]-6,N-dimethyl-nicotinamide], 28.8 nM.
On to `CN(C(=O)c1ccc(Cl)nc1)[C@@H]1CN(C(=O)c2ccc(C#N)cc2)C[C@H]1c1ccc(Cl)c(Cl)c1` (racemic) [Example 78, rac-6-Chloro-N-[(3S,4R)-1-(4-cyano-benzoyl)-4-(3,4-dichloro-phenyl)-pyrrolidin-3-yl]-N-methyl-nicotinamide], for which the Ki is 7.8 nM.
In the case of `CN(C(=O)c1ccc(C#N)nc1)[C@@H]1CN(C(=O)c2ccc(C#N)cc2)C[C@H]1c1ccc(Cl)c(Cl)c1` (racemic) [Example 80, rac-6-Cyano-N-[(3S,4R)-1-(4-cyano-benzoyl)-4-(3,4-dichloro-phenyl)-pyrrolidin-3-yl]-N-methyl-nicotinamide] it was 40 nM; in that of `CN(C(=O)c1ccc(C(F)(F)F)nc1)[C@@H]1CN(C(=O)c2ccc(C#N)cc2)C[C@H]1c1ccc(Cl)c(Cl)c1` (racemic) [Example 81, rac-N-[(3S,4R)-1-(4-Cyano-benzoyl)-4-(3,4-dichloro-phenyl)-pyrrolidin-3-yl]-N-methyl-6-trifluoromethyl-nicotinamide], 5.8 nM; in that of `CN(C(=O)c1ccc(OCC(F)(F)F)nc1)[C@@H]1CN(C(=O)c2ccc(C#N)cc2)C[C@H]1c1ccc(Cl)c(Cl)c1` (racemic) [Example 82, rac-N-[(3S,4R)-1-(4-Cyano-benzoyl)-4-(3,4-dichloro-phenyl)-pyrrolidin-3-yl]-N-methyl-6-(2,2,2-trifluoro-ethoxy)-nicotinamide], 11.7 nM.
In the case of `Cc1cncc(C(=O)N(C)[C@@H]2CN(C(=O)c3ccc(C#N)cc3)C[C@H]2c2ccc(Cl)c(Cl)c2)c1` (racemic) [Example 83, rac-N-[(3S,4R)-1-(4-Cyano-benzoyl)-4-(3,4-dichloro-phenyl)-pyrrolidin-3-yl]-5,N-dimethyl-nicotinamide] it was 97.1 nM; in that of `CN(C(=O)c1ccc(F)nc1)[C@@H]1CN(C(=O)c2ccc(C#N)cc2)C[C@H]1c1ccc(Cl)c(Cl)c1` (racemic) [Example 85, rac-N-[(3S,4R)-1-(4-Cyano-benzoyl)-4-(3,4-dichloro-phenyl)-pyrrolidin-3-yl]-6-fluoro-N-methyl-nicotinamide], 82.1 nM.
With `COc1ccc(C(=O)N(C)[C@@H]2CN(C(=O)c3ccc(C#N)cc3)C[C@H]2c2ccc(Cl)c(Cl)c2)cn1` (racemic) [Example 86, rac-N-[(3S,4R)-1-(4-Cyano-benzoyl)-4-(3,4-dichloro-phenyl)-pyrrolidin-3-yl]-6-methoxy-N-methyl-nicotinamide], the Ki was 17.8 nM.
In the case of `COc1ccc(C(=O)N(C)[C@H]2CN(C(=O)C3CCN(C(=O)C4(C)CC4)CC3)C[C@@H]2c2ccc(Cl)cc2)cc1C(F)(F)F` (racemic) [Example 87, N-{(3RS,4SR)-4-(4-Chloro-phenyl)-1-[1-(1-methyl-cyclopropanecarbonyl)-piperidine-4-carbonyl]-pyrrolidin-3-yl}-4-methoxy-N-methyl-3-trifluoromethyl-benzamide] it was 0.8 nM; in that of `COc1ccc(C(=O)N(C)[C@H]2CN(C(=O)c3ccc(F)cc3)C[C@@H]2c2ccc(Cl)cc2)cc1C(F)(F)F` (racemic) [Example 88, N-[(3RS,4SR)-4-(4-Chloro-phenyl)-1-(4-fluoro-benzoyl)-pyrrolidin-3-yl]-4-methoxy-N-methyl-3-trifluoromethyl-benzamide], 17.8 nM.
In the case of `COc1ccc(C(=O)N(C)[C@H]2CN(C(=O)c3ccc(F)cc3C)C[C@@H]2c2ccc(Cl)cc2)cc1C(F)(F)F` (racemic) [Example 89, N-[(3RS,4SR)-4-(4-Chloro-phenyl)-1-(4-fluoro-2-methyl-benzoyl)-pyrrolidin-3-yl]-4-methoxy-N-methyl-3-trifluoromethyl-benzamide] it was 23.3 nM; in that of `COc1ccc(C(=O)N(C)[C@H]2CN(C(=O)c3ccc(C#N)nc3)C[C@@H]2c2ccc(Cl)cc2)cc1C(F)(F)F` (racemic) [Example 90, N-[(3RS,4SR)-4-(4-Chloro-phenyl)-1-(6-cyano-pyridine-3-carbonyl)-pyrrolidin-3-yl]-4-methoxy-N-methyl-3-trifluoromethyl-benzamide], 11.7 nM.
